SMILES strings stand for the structures.

The test system of assay [1] is two different breast cancer cell lines. Nature of the assay: induction of ROS (fold), compounds alone and in combination. The assay is classed as cell-based. To be noted: Table 11. Here is the method: In order to better understand the combined activities of the isolated species, several flavanones and flavones isolated from Scutellaria barbata were tested individually and in combination. The flavanones and flavones tested are depicted in FIG. 8. These compounds 1-8 from were tested for induction of ROS, DNA damage and cell death, as described in Example 2.
The results set forth in Tables 10 and 11 were confirmed by performing the experiments in two different breast cancer cell lines.

In assay [2] the test system is breast cancer cells (MDA MB 231, SKBr3). As to the kind of experiment: DNA damage, comet assay. It counts as cell-based, human. The protocol: (§1) 1. Induction of the loss of the mitochondrial transmembrane potential (MTP). […] 2. Induction of reactive oxygen species (ROS). […] 3. […] 4. Compounds were tested for induction of DNA damage using test known as comet assay that allows detection of DNA damage in individual cells. […] 6. The mode of cell death (i.e., apoptosis versus necrosis) was studied using several criteria: conversion of cells to positivity for binding Annexin V; DNA fragmentation (characteristic of apoptotic death) and decrease in cellular ATP levels (commonly observed during necrotic death) (FIG. 5). 1. Induction of the loss of the mitochondrial transmembrane potential (MTP). […] 2. Induction of reactive oxygen species (ROS). […] 3. […] 4. Compounds were tested for induction of DNA damage using test known as comet assay that allows detection of DNA damage in individual cells. […] 6. The mode of cell death (i.e., apoptosis versus necrosis) was studied using several criteria: conversion of cells to positivity for binding Annexin V; DNA fragmentation (characteristic of apoptotic death) and decrease in cellular ATP levels (commonly observed during necrotic death) (FIG. 5).

For assay [3] the test system is unchanged. As to the kind of experiment: induction of ROS, CM-H2DCFDA staining. It counts as cell-based, human. Here is the method: as §1
DCFDA is nonfluorescent in reduced form and is readily membrane-permeant. Cellular esterases cleave its acetate groups. The thiol-reactive chloromethyl group then binds to cellular thiols, trapping the dye inside the cell, where oxidation converts it to the fluorescent form. […] It is relatively insensitive to oxidation by superoxide.
FIG. 1. […] The indicated compounds were added to cells at 20 μg/ml growth medium, followed by addition of 10 μM CM-H2 DCFDA. Inhibitor of mitochondrial respiration, NaN3, was added at 10 mM. After 30 minute incubation, cells were washed in PBS and analyzed on FACScan for fluorescence.

Assay [4] shares this test system. Nature of the assay: mode of cell death: Annexin V binding, DNA fragmentation. The assay is classed as cell-based, human. The protocol:
as §1

Assay [5] has the same test system. As to the kind of experiment: cellular ATP levels, ATP bioluminescence. It counts as cell-based, human. The protocol:
as §1

Assay [6] shares this test system. Nature of the assay: mitochondrially derived superoxide, MitoSOX staining. It counts as cell-based, human. Here is the method: as §1

Regarding `O=c1cc(-c2ccc(O)cc2)oc2cc(O)cc(O)c12` [cmpd 4], the “Induction of ROS (fold)” value in assay [1] turned out to be 0.6 fold.
With `O=C1CC(c2ccc(O)cc2)Oc2cc(O)c(O)c(O)c21` (stereo not drawn) [Carthamidin], the “induction of DNA damage” value in assay [2] is given as “induce DNA damage”. In addition, in assay [3], the “induction of cellular ROS” value is recorded as “induce ROS, but of extra-mitochondrial origin”.
Take `O=c1cc(-c2ccc(O)cc2)oc2cc(O)cc(O)c12` [Apigenin]: the “cell death and its mode” value in assay [4] was “induce significant cell death characterized as apoptotic”. In assay [2], the “induction of DNA damage” value is “do not induce DNA damage”. For the same compound, in assay [5], the “cellular ATP levels” value is “slight but consistent increase in ATP levels”. The “generation of mitochondrial superoxide” value in assay [6] is listed as “induce generation of superoxide whose origin is identified as mitochondrial”.
`O=c1cc(-c2ccc(O)cc2)oc2c(O)c(O)cc(O)c12` [Isoscutellarein]: the “cell death and its mode” value in assay [4] is reported as “cell death that has hallmarks of programmed necrosis”. Further, the “induction of DNA damage” value in assay [2] was “induce DNA damage”. Moreover, the “induction of cellular ROS” value in assay [3] was “induce ROS, but of extra-mitochondrial origin”.
As for `O=C1CC(c2ccc(O)cc2)Oc2c(O)c(O)cc(O)c21` (stereo not drawn) [Isocarthamidin], the “induction of DNA damage” value in assay [2] is “induce DNA damage”. Moreover, in assay [3], the “induction of cellular ROS” value is “induce ROS, but of extra-mitochondrial origin”.
`O=c1cc(-c2ccc(O)cc2)oc2cc(O)c(O)c(O)c12` [Scutellarein]: in assay [4], the “cell death and its mode” value is given as “cell death that has hallmarks of programmed necrosis”. Also, the “induction of DNA damage” value in assay [2] was “induce DNA damage”. Moreover, the “induction of cellular ROS” value in assay [3] is given as “induce ROS, but of extra-mitochondrial origin”.

The values are drawn from US20100069481A1, “METHODS AND COMPOSITIONS FOR THE TREATMENT OF CANCER” (Bionovo, Inc., priority 2008, published 2010).
